Reference: US6903132B2, “Non-peptide GnRH agents, pharmaceutical compositions and methods for their use” (Agouron Pharmaceuticals, Inc., priority 2002, dated 2005)
Where “and” joins values, the source holds several entries; their conditions need not be identical. Equal entries are not always repeated.

Assays:
human GnRH receptors = biological target: T1, human GnRH receptors (Homo sapiens, UniProt P30968); test: Radioligand binding assay: inhibition of binding of 125I-GnRH-A to GnRH receptors (membranes); settings: Human GnRH receptor; competition with 125I-GnRH-A; Ki calculated from IC50 (Cheng et al.)
T1 construct: expressed in transfected cells; host or cells: HEK 293
T1 sequence (P30968 1-328): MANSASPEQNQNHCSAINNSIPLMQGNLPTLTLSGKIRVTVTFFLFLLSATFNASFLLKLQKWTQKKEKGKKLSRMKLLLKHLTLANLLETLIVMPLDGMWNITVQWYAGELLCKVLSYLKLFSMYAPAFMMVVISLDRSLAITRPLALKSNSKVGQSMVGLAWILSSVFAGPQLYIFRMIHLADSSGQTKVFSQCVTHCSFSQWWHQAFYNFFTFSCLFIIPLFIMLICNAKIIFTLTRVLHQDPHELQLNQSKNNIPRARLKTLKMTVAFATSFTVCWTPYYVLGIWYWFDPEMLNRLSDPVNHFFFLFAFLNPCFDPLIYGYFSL
Summary of the method: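 Membranes from HEK 293 expressing mouse or human receptor, or rat pituitaries, incubated 1 h at RT with ~0.04–0.06 nM ¹²⁵I-[des-Gly¹⁰,D-Ala⁶]GnRH ethylamide and competitor (0.1–10,000 nM) in HEPES pH 7.4 with MgCl2, EDTA, BSA. Filtration onto PEI-soaked GF/C filters, scintillation counting; Ki from IC50 by Cheng–Prusoff.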

[1] = In vitro metabolism: disappearance of parent compound in liver microsomes; assay type: in vitro ADME; settings: human liver microsomes; 5 uM compound, 0.5 mg/ml microsomal protein, 2 mM NADPH, 30 minutes at 37° C.
Protocol: (§1) Human, rat, dog, and monkey liver microsomes are isolated by differential centrifugation. Specimens of human liver were obtained from the International Institute for the Advancement of Medicine (Scranton, Pa.). The disappearance of the parent compound is studied in a mixture containing 5 uM compound, 0.5 mg/ml microsomal protein, and 2 mM NADPH in 50 mM K Phosphate buffer, pH 7.4. Samples are incubated for 30 minutes at 37° C. The reaction is terminated by the addition of acetonitrile and compounds analyzed by LC-MS as described above.

[2] = In vitro metabolism: disappearance of parent compound in liver microsomes (male rat); assay type: in vitro ADME; settings: 5 uM compound, 0.5 mg/ml microsomal protein, 2 mM NADPH, 30 minutes at 37° C.
Protocol: as §1

[3] = Pharmacokinetics in male rats; assay type: in vivo, rat; settings: for M T1/ hr: male rats (MR); for M T1/ hr / Tmax: dosed orally at 50 mg/kg; for M Fp. / Tmax: male rats; for M Fp.: oral bioavailability, AUCp.o./AUCi.v.; for Tmax: rat, plasma, po, read-out: MR Tmax hr
Protocol: Rats (male or female, 200-225 g) are prepared with indwelling jugular vein cannula as described by Harms et al., Applied Physiol. 36:391-398 (1974), and allowed to recover overnight with free access to the standard vivarium chow and water. The compounds are administered to female rats at 5 mg/kg i.v. and 10 mg/kg p.o. as solutions in 10% DMSO+10% cremophor+80% saline or 10% cremophor+90% saline. The male rats are dosed orally at 50 mg/kg in the vehicles specified in Table 3. The blood samples are withdrawn at specific times, plasma is immediately separated and compound extracted with ethyl acetate. The samples are analyzed by LC-MS using 30-90% gradient of ACN in 50 mM ammonium acetate.
The pharmacokinetic parameters are calculated using WinNonlin software (Scientific Consulting Inc.). The bioavailability is calculated as AUCp.o./AUCi.v., where AUCp.o. and AUCi.v. are areas under the plasma concentration-time curve after oral and i.v. administration, respectively.

SMILES | Ki (human GnRH receptors) [nM] | Huma % p. 30′ [1] | Male t % p. 30′ [2] [%] | M T1/ hr [3] [h] | M Fp. [3] [%] | Tmax [3] [h]
Cc1cc2c(cc1Cc1ccc(C(=O)NNc3cc(C)c4c(C)nn(C)c4n3)o1)C(C)(C)CCC2(C)C [Example C1, 5-[(3,5,5,8,8-Pentamethyl-5,6,7,8-tetrahydro-2-naphthalenyl)methyl]-N′-(1,3,4-trimethyl-1H-pyrazolo[3,4-b]pyridin-6yl)-2-furohydrazide] | 3 | 63% and 54% and 37% and 38% | 99 | 1.3 | 1 | 1
COc1cc2c(cc1Cc1ccc(C(=O)NNc3cc(C)c4c(C)nn(C)c4n3)o1)C(C)(C)CCC2(C)C [Example C2, 5-[(3-Methoxy-5,5,8,8-tetramethyl-5,6,7,8-tetrahydro-2-naphthalenyl)methyl]-N′-(1,3,4-trimethyl-1H-pyrazolo[3,4-b]pyridin-6-yl)-2-furohydrazide] | 9.5 | 40% | 97 | 1.2 | 4 | 1
